Entries after “also recorded” stand apart in the source; their conditions may differ.
How the values were obtained:
LdtMt2 [1] = biological target: T1, LdtMt2 (Mycobacterium tuberculosis, UniProt I6Y9J2); format: binding, M. tuberculosis
LdtMt1 = LdtMt1 (Mycobacterium tuberculosis, UniProt O53638); format: binding, M. tuberculosis
LdtMt2 [2] = biological target: T1, LdtMt2; test: biochemical; parameters: species or system M. tuberculosis; conditions: read-out: kinact/Kapp ratio
[3] = test system: mutant LdtMt2 (Y318A, Y318F, H336N, H352A, H352N, C354A, C354S); format: binding, M. tuberculosis
[4] = test system: LdtMt2 variants Y318F, H336N, H352N and C354S; format: binding, M. tuberculosis

LdtMt1, sequence (O53638 32-251 limits assumed): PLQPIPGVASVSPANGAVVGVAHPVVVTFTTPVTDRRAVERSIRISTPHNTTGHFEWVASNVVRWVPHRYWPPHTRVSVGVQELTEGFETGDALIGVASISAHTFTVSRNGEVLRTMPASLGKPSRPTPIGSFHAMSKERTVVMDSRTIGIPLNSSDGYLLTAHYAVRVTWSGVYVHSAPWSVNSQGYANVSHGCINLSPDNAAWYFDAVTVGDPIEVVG
T1 sequence (I6Y9J2 56-408 limits assumed): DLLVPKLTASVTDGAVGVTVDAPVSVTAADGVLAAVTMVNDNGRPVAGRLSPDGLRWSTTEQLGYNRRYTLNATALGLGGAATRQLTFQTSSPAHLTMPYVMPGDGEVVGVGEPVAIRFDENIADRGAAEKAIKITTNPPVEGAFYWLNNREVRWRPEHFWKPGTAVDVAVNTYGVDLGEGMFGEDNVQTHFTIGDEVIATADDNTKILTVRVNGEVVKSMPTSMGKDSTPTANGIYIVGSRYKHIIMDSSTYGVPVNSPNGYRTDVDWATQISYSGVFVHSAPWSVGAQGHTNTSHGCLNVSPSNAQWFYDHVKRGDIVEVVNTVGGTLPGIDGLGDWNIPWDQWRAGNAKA

| Structure (SMILES) | reaction and covalent adduct formation (LdtMt2 [1]) | reaction and covalent adduct formation (LdtMt1) | kinact/KI (LdtMt2 [2]) | adduct formation [3] | binding affinity [4] |
| --- | --- | --- | --- | --- | --- |
| C[C@@H](O)[C@H]1C(=O)N2C(C(=O)O)=C(SCC(=O)OC3CCCCC3)[C@H](C)[C@H]12 [T208] | reacted and formed covalent adducts | reacted and formed covalent adducts | 9330 M⁻¹ s⁻¹ | – | – |
| COC(=O)CSC1=C(C(=O)[O-])N2C(=O)[C@H]([C@@H](C)O)[C@H]2[C@H]1C.[Na+] [T205, sodium (4R,5S,6S)-6-((R)-1-hydroxyethyl)-3-((2-methoxy-2-oxoethyl)thio)-4-methyl-7-oxo-1-azabicyclo[3.2.0]hept-2-ene-2 carboxylate] | reacted and formed covalent adducts | reacted and formed covalent adducts | – | – | – |
| C[C@@H](O)[C@H]1C(=O)N2C(C(=O)O)=C(SC3CN(C4=NCCS4)C3)[C@H](C)[C@H]12 [tebipenem] | – | – | – | same adducts were detected; also recorded: failed to produce any covalent adduct | either a complete loss of or no appreciable binding affinities |
| C[C@@H](O)[C@H]1C(=O)N2C(C(=O)[O-])=C(SC3Cn4cnc[n+]4C3)[C@H](C)[C@H]12 (stereo partly drawn) [biapenem] | – | – | – | no adducts could be detected | – |
| CSC1=C(C(=O)O)N2C(=O)[C@H]([C@@H](C)O)[C@H]2[C@H]1C [T210] | reacted and formed covalent adducts | reacted and formed covalent adducts | – | – | poor binding affinities |
| CCCOC(=O)CSC1=C(C(=O)O)N2C(=O)[C@H]([C@@H](C)O)[C@H]2[C@H]1C [T206] | reacted and formed covalent adducts | reacted and formed covalent adducts | – | – | – |
| C[C@@H](O)[C@H]1C(=O)N2C(C(=O)O)=C([C@H]3CCCO3)S[C@H]12 [faropenem] | – | – | – | same adducts were detected; also recorded: failed to produce any covalent adduct | either a complete loss of or no appreciable binding affinities |

From US10695322B2 (priority 2016, dated 2020)
